Data: US12637658B2, “Method for gene transfer into gamma-delta type T cell” (Mie University, priority 2018, dated 2026)

Experiments:
γδT cells [1] = experiment: Proliferation of γδT cells from peripheral blood monocytes with compound 7, IL-7 and IL-15; type: cell-based, human; conditions: for ratio of the γδT cells: Day 11
Protocol: The monocytes were prepared from peripheral blood of two healthy subjects by Ficoll. Personal agreement for the blood collection was achieved based on the research ethics code of the medical school of Mie University. The monocytes adjusted to 1.5×10^6 cells/mL with the culture solution of Yssel containing 10% human AB serum were cultured for one day in the presence of tetrakispivaloyloxymethyl 2-(thiazole-2-ylamino) ethylidene-1,1-bisphosphonate (compound 7, 1 μM), and then added with 25 ng/mL of IL-7 (Miltenyi Biotec, catalog number: 170-076-111) and 25 ng/mL of IL-15 (Miltenyi Biotec, catalog number: 170-076-114), and further cultured for 10 days. The frequency of the γδT cells in the monocyte population were analyzed by flow cytometry (FACSCANTO II, Becton Dickinson). As a result, the ratio of the γδT cells at the start of culture (Day 0) was 2.7% for donor 1 (HD1) and 1.7% for donor 2 (HD2), respectively. […] Peripheral blood of healthy human normally contains 1 to 3% of the γδT cells. However, approximately 1×10^8 of γδT cell populations could be prepared in high-purity from 1.5 mL of peripheral blood.
A culture solution of Yssel containing 10% human AB serum was used as the culture solution. As a result, rapid cell proliferation was observed from about Day 8 after the culture. The number of cells on Day 13 was 3×10^8, which was about 5000 times (FIG. 1B).
As comparison, IL-7 and IL-15 in the culture solution were replaced by IL-2 (PROLEUKIN, Chiron Therapeutics), and monocytes were cultured.

γδT cells [2] = experiment: Comparison of compound 7 with zoledronate: proliferation and purity of γδT cells (IL-2 culture); type: cell-based, human; conditions: for effect on cell proliferation: Day 8, IL-2 300 U/mL
Protocol: Peripheral blood monocytes were collected from healthy subjects (n=8, HD1 to HD8) in two experiments (n=4 in each experiment). On Day 0, 1.5×10^6 of the collected peripheral blood monocytes were added to each well of 24-well plate. […] Then, on Day 1, IL-2 (300 U/mL) was added. The IL-2 is a cytokine used for the proliferation of the γδT cells according to the reports (non-patent documents 5 and 6). On Day 6, the cells of one well were diluted 2-fold into two wells. The number of cells was counted. On Day 7, the cells of two wells were diluted 2-fold into four wells, and IL-2 (300 U/mL) was further added. On Day 8, half-volume (about 3 mL) of the cells were diluted 6-fold to 18 mL, and cultured in a T75 flask. On Day 8 and Day 11, the number of cells was counted and cell purity was measured by flow cytometry analysis.

[3] = compound 7 1 μM, IL-7 and IL-15 25 ng/mL
[4] = compound 7 1 μM vs zoledronate 5 μM

Molecule	start of rapid cell proliferation (γδT cells [1]; [3])	γδT cell populations prepared in high-purity from 1.5 mL of peripheral blood (γδT cells [1]; [3])	ratio of the γδT cells (γδT cells [1]; donor 1 (HD1), compound 7 1 μM, IL-7 and IL-15 25 ng/mL, 2.7% at Day 0)	ratio of the γδT cells (γδT cells [1]; donor 2 (HD2), compound 7 1 μM, IL-7 and IL-15 25 ng/mL, 1.7% at Day 0)	number of cells on Day 13 (γδT cells [1]; from 3×10^6 monocytes (3 mL peripheral blood), compound 7 1 μM, IL-7 and IL-15 25 ng/mL)	fold increase of cells on Day 13 (γδT cells [1]; from 3×10^6 monocytes, compound 7 1 μM, IL-7 and IL-15 25 ng/mL)	effect on cell proliferation (γδT cells [2]; [4])	frequency of the γδT cells in lymphocyte fraction (P1) (Vd2/P1) (γδT cells [2]; Day 8 and Day 11, compared to the zoledronate treatment group, t test)	cell proliferation-stimulating effect compared to zoledronate (γδT cells [2]; Day 11, Experiment 1, subjects HD1 to HD4, compound 7 1 μM vs zoledronate 5 μM)	cell proliferation-stimulating effect compared to zoledronate (γδT cells [2]; Day 11, Experiment 2, subject)	cell proliferation-stimulating effect compared to zoledronate (γδT cells [2]; Day 11, Experiment 2, subject HD8)	cell proliferation-stimulating effect compared to zoledronate (γδT cells [2]; Day 11, Experiment 2, subjects HD6 and HD7)	proliferation of γδT cells compared to zoledronate, average (γδT cells [2]; Day 11, Experiments 1 and 2, n=8, p=0.008, t test)	frequency of the γδT cells in CD3 positive cells (Vd2/CD3) (γδT cells [2]; compared to the zoledronate treatment group, t test)	effect of promoting cell proliferation by IL-7 and IL-15 on further addition of IL-2 (γδT cells [1]; monocytes stimulated with compound 7)
CC(C)(C)C(=O)OCOP(=O)(OCOC(=O)C(C)(C)C)C(CNc1nccs1)P(=O)(OCOC(=O)C(C)(C)C)OCOC(=O)C(C)(C)C [compound 7, tetrakispivaloyloxymethyl 2-(thiazole-2-ylamino)ethylidene-1,1-bisphosphonate]	~8 days	approximately 1×10^8	97.1%	94.5%	3×10^8	about 5000 times	almost no difference	significantly higher	strongly recognized	the same level	weak	greater	significantly excellent	significantly higher	–
O=P(O)(O)C(O)(Cn1ccnc1)P(=O)(O)O [zoledronate, reference compound]	–	–	–	–	–	–	almost no difference	–	–	–	–	–	–	–	–
IL-2: interleukin-2 (PROLEUKIN, Chiron Therapeutics), cytokine used for proliferation of γδT cells	–	–	–	–	–	–	–	–	–	–	–	–	–	–	not further increased
